Reference: paper PMC9022229, “Induction of Paraptosis by Cyclometalated Iridium Complex-Peptide Hybrids and CGP37157 via a Mitochondrial Ca^2+ Overload Triggered by Membrane Fusion between Mitochondria and the Endoplasmic Reticulum” (Biochemistry, 2022)
Residues, ends and D or L forms follow the SMILES beside them. *: point of attachment. X1 = O=C(COc1ccc(-c2ccccn2)cc1)NCCCCCCCCN*

Experiments:
HeLa S3 cells = assay: MTT assay of HeLa S3 cells; format: cell-based, human; settings: 24 h, 10% FBS/MEM, 37 °C, 5% CO2
Method: (§1) HeLa S3 and A549 cells (2.0 × 10^4 cells/well) were seeded on a 96-well plate (BD Falcon) in cell culture medium and incubated overnight at 37 °C under 5% CO2. Jurkat (2.0 × 10^4 cells/well), HeLa S3, and A549 cells were treated with 4 (0–25 μM) and CGP37157 (0–100 μM) for 1, 3, 6, 12, and 24 h at 37 °C under 5% CO2, after which a MTT solution in PBS (0.5%, 10 μL) was added to each well.
(§2) Figure S3. MTT assay of HeLa S3 cells (plain curves with filled circles) and A549 cells (dashed curves with filled squares) treated with CGP37157 (0–100 µM) in 10% FBS/MEM (HeLa S3 cells) and 10% FBS/DMEM (A549 cells) for 24 h at 37 °C under 5% CO 2.
(§3) Figure S4. MTT assay of Jurkat cells treated with inhibitors of programmed cell death; Z-VAD-fmk (an apoptosis inhibitor), necrostatin-1 (Nec-1: a necroptosis inhibitor), and 3-methyl adenine (3-MA, an autophagy inhibitor) in the presence of CGP37157 (100 µM, 12 h). Values are shown as the mean ± SD for three independent experiments. ** P < 0.01.
(§4) (also on this page, place not known: Cell viability (% control) CO2. 50 Cell viability (% control) 0300 00030 of)

A549 cells = assay: MTT assay of A549 cells; format: cell-based, human; settings: 24 h, 10% FBS/DMEM, 37 °C, 5% CO2
Method: as §1, §2, §3, §4

Jurkat cells [1] = assay: Mitochondrial Ca2+ by flow cytometry with Rhod-2; format: cell-based
Method: Other characteristic phenomena of paraptosis such as a mitochondrial Ca^2+ overload and loss of mitochondrial membrane potential (ΔΨm) induced by CGP37157 were also examined. Intracellular Ca^2+ concentrations were measured by flow cytometry using red-emitting Ca^2+ probes, Rhod-2 (a mitochondrial Ca^2+ probe) and Rhod-4 (a cytosolic Ca^2+ probe). Jurkat cells were stained with Rhod-2/AM or Rhod-4/AM (at 5 μM) and then treated with CGP37157 (100 μM) or 4 (5 μM) for a given period of incubation, immediately after which the emission intensity of Rhod-2 and Rhod-4 was measured by flow cytometry. […]
In a 1.5 mL Eppendorf tube, Jurkat cells (2.0 × 10^5 cells) were incubated in the presence of Rhod-2/AM (5 μM, 100 μL) or Rhod-4/AM (5 μM, 100 μL) in 10% FBS/RPMI 1640 medium for 30 min at 37 °C under 5% CO2 and then treated with 4 (5 μM, 0–30 min) or CGP37157 (100 μM, 0–6 h) in 10% FBS/RPMI 1640 medium (100 μL) for 30 min at 37 °C under 5% CO2. Immediately after the treatment, 10% FBS/RPMI 1640 medium (300 μL) was added to the cells and the samples were analyzed on a flow cytometer (FACSCalibur cytometer, Becton). The data were analyzed on FlowJo software (FlowJo, LCC).

Jurkat cells [2] = assay: Mitochondrial membrane potential (ΔΨm) by DilC1(5) confocal microscopy; format: cell-based
Method: The mitochondrial membrane potential (ΔΨm) was measured by means of DilC1(5) (1,1′,3,3,3′,3′-hexamethylindodicarbocyanine iodide), the emission intensity of which responds to ΔΨm.[95] Jurkat cells were treated with CGP37157 (100 μM) for 1–12 h, stained with DilC1(5) (5 μM) for 30 min, and observed via confocal microscopy. […] The decrease in ΔΨm with 4 was also observed by confocal microscopy (Figure 6B).
In a 1.5 mL Eppendorf tube, Jurkat cells (2.0 × 10^5 cells) were stained with DilC1(5) (500 nM, 100 μL) in 10% FBS/RPMI 1640 medium for 30 min at 37 °C under 5% CO2, followed by the treatment with 4 (5 μM, 100 μL) in the medium for 0–60 min at 37 °C under 5% CO2. For CGP37157, Jurkat cells (2.0 × 10^5 cells) were treated with CGP37157 (100 μM, 100 μL) in 10% FBS/RPMI 1640 medium for 0–12 h at 37 °C under 5% CO2, followed by the treatment with DilC1(5) (500 nM, 100 μL) in PBS. The cells were washed with PBS and observed by confocal microscopy (Fluoview, FV-1000, Olympus) using a Greiner CELLview dish (35 mm × 10 mm). Excitation at 405 nm and emission from 470 to 520 nm were used for 4. Excitation at 635 nm and emission from 650 to 750 nm were used for DilC1(5). The exposure time was 20 μs/pixel.

Jurkat cells [3] = assay: Intracellular uptake in Jurkat cells by ICP-MS; format: cell-based; settings: 5 μM, 37 °C, 5% CO2, ICP-MS, n = 3
Method: The time-dependent intracellular uptake of 4 into Jurkat cells was measured by ICP-MS (inductively coupled plasma-mass spectrometry). Jurkat cells were treated with 4 (5 μM) for 30 min, 1 h, 2 h, and 3 h at 37 °C under 5% CO2, washed three times with PBS, and lysed with nitric acid at 4 °C overnight. The lysates were diluted with H2O, and the samples were analyzed by ICP-MS.
In a 1.5 mL Eppendorf tube, Jurkat cells (1.0 × 10^6 cells) were treated with 4 (5 μM) for 0–3 h at 37 °C under 5% CO2 (n = 3). After the cells had been washed three times with PBS, HNO3 (60%, 0.5 mL) was added to the cells and the resulting solutions were incubated overnight at 4 °C. After centrifugation (15000 rpm, 4 °C, 10 min), the supernatant was transferred to a 15 mL tube, diluted with H2O (4.5 mL), and filtered. The number of iridium atoms was measured by ICP-MS (NexION300S, PerkinElmer).

IMR90 cells = tested on: IMR90 cells; design: method as in PMID 25875312, PMID 28032992, doi:10.1002/ejic.201700846, PMID 30154833, PMID 30177492; settings: Chart 1, normal cell line, previously reported; read-out: EC50 against IMR90 cells; cited from earlier work

Structure (SMILES) | EC50 (HeLa S3 cells) [µM] | EC50 (A549 cells) [µM] | Emission intensity of Rhod-2 (mitochondrial Ca2+) (Jurkat cells [1]; CGP37157 100 μM, 6 h after treatment) | Emission of DilC1(5) (ΔΨm) (Jurkat cells [2]; CGP37157 100 μM, 6 h) | Ir atom (intracellular amount) (Jurkat cells [3]; 30 min) [fmol/cell] | Ir atom (intracellular amount) (Jurkat cells [3]; 1 h) [fmol/cell] | Ir atom (intracellular amount) (Jurkat cells [3]; 2 h) [fmol/cell] | Ir atom (intracellular amount) (Jurkat cells [3]; 3 h) [fmol/cell] | Emission intensity of Rhod-2 (mitochondrial Ca2+) (Jurkat cells [1]; 4 at 5 μM, 10–30 min after treatment) | Emission of DilC1(5) (ΔΨm) (Jurkat cells [2]; 4 at 5 μM, 20 min after treatment) | EC50 (IMR90 cells) [µM]
O=C1CSC(c2ccccc2Cl)c2cc(Cl)ccc2N1 (centres unmarked) [CGP37157] | 45 | 81 | enhanced | quenched | – | – | – | – | – | – | –
NCCCC[C@H](NC(=O)[C@H](CCCCN)NC(=O)[C@@H](N)CCCCN)C(=O)NCC(=O)NCC(=O)NCCCCCCCCNC(=O)COc1ccc(-c2ccccn2)cc1 [compound 4] (H-KKKGG-X1) | – | – | – | – | 0.64 ± 0.01 | 1.3 ± 0.1 | 1.2 ± 0.1 | 1.5 ± 0.4 | enhanced | decrease in emission intensity | > 25
